According to paper PMC7995547, “ω‐Imidazolyl‐alkyl derivatives as new preclinical drug candidates for treating non‐alcoholic steatohepatitis” (Physiological Reports, 2021):

Test system: HFD‐induced NASH rat model (serum)
Assay: Adipocytokines and glucose metabolism in serum, NASH rat model
Assay type: in vivo, Wistar rats
Details: for Decrease in serum TNF‐α level compared to disease group / Decrease in serum leptin compared to disease group / Increase in serum adiponectin compared to disease group / Reduction of the effect of HFD on serum adiponectin / Reduction of the effect of HFD on serum leptin: average over doses (I‐ol, I‐an); for Reduction of the effect of HFD on serum adiponectin: UDCA 40 mg/kg b.w. (elevated the concentration by); for Reduction of the effect of HFD on serum leptin: UDCA 40 mg/kg b.w. (reduced leptin concentration); for Serum leptin above the reference value of control group 1: highest concentrations (40 mg/kg b.w.)
Method: Studies were done using Wistar rats of female sex by the Institute of Pharmacology and Biochemistry at Minsk. The animals were 80–90 days old and weighed 180–200 g. They had free access to a liquid Lieber‐DeCarli (LDC) diet (Lieber et al., 2004) and were housed under standard conditions meaning a 12‐h light/dark cycle at 22 ± 2°C and 55 ± 5% humidity.
Group 1 was designated as the first control group; it was fed a normal standard solid diet. Group 2, as the second control group, was fed a standard amount of fat as a part of the liquid “physiological,” non‐high fat LDC diet. All other groups received the liquid ‘disease‐causing’ LDC diet (Table 2), including a high content of unsaturated fatty acids.
Both LDC diets were in a liquid form as produced by ssniff‐Spezialdiäten GmbH, Soest (Germany). The feed was provided over the entire experimental period of 16 weeks; however, the corresponding experimental substances were only administered in the last four weeks (Figure 3).
The experimental substances I‐ol, I‐an, and UDCA were dissolved in a 0.8% aqueous HPMC gel to obtain the following concentrations: (1) I‐ol at 0.4, 4, and 40 mg/kg body weight (b.w.), (2) I‐an at 0.4, 4, and 40 mg/kg b.w., and (3) UDCA at 40 mg/kg b.w. The Group‐2 and −3 rats received only HPMC as placebo. Each test encompassed 6–8 rats that were put up in a separate cage. The rats were fed ad libitum, and their intake per cage was controlled daily. In order to ensure an exact daily reproducible dosage, the experimental substances or only HPMC was administered intragastrically via oral gavage. Basically, the drug therapy of a chronic disease is the more efficient the higher the adherence of the affected patients. This is generally higher with peroral administration than with any other form of application. At the end of the experiment, the animals were sacrificed under fasting conditions, by aorta dissection and exsanguination, after anesthetizing with an intraperitoneal injection of 5% pentobarbital solution.
The concentrations of adiponectin and TNFα were measured using ELISA kits sold by BioCat GmbH (Heidelberg, Germany), whereas the one for determining leptin level was procured from BioVendor Laboratory Medicine Inc. (Brno, Czech Republic). Insulin concentration was determined using the radioimmunoassay kit RIO‐insulin‐PG‐J125 (IBOCH, Minsk, Belarus). Serum glucose level was determined based on the “Accu‐Check Active blood glucose” monitoring method developed by Roche‐Diagnostics.

SMILES | Dose dependence of the effect on serum adiponectin (0.4, 4, 40 mg/kg b.w.) | Dose dependence of the effect on serum leptin (0.4, 4, 40 mg/kg b.w.) | Decrease in serum TNF‐α level compared to disease group (UDCA 40 mg/kg b.w.) | Decrease in serum leptin compared to disease group (UDCA 40 mg/kg b.w.) | Increase in serum adiponectin compared to disease group (UDCA 40 mg/kg b.w.) | Reduction of the effect of HFD on serum adiponectin | Reduction of the effect of HFD on serum leptin | Serum leptin above the reference value of control group 1 | Reduction of the effect of HFD on serum TNF‐α level (average over doses (I‐ol), UDCA 40 mg/kg b.w.) | Serum adiponectin above the reference value of control group 1 (highest concentration (40 mg/kg b.w.))
CCCCCCCCCCCCn1ccnc1 [I‐an, 1‐imidazolyldodecane] | weak, significant (p < 0.05) linear dose‐dependent effect | weak yet significant (p < 0.05) linear dose‐dependent effect | not significant | 18% | 31% | 38% | 62% | 1% |  | 
OCCCCCCCCCCCCn1ccnc1 [I‐ol, 12‐imidazolyl‐1‐dodecanol] |  |  | 49% | 22% | 64% | 78% | 75% | 3% | 66% | 4%
